US10005767B2, “Compositions and methods for inhibition of the JAK pathway” (Rigel Pharmaceuticals, Inc., priority 2009, dated 2018)
Structures can show the parent of a compound that is named as a salt.

Tested on: human primary T-cells, IL-2 stimulated proliferation (JAK-1 and JAK-3 dependent; reported as JAK3 activity)
Experiment: Human primary T-cell proliferation stimulated by IL-2 (Example 3)
Type: cell-based
Settings: Homo sapiens, T-cell, tested under conditions described in Example 3 (IL-2 stimulated human primary T-cell proliferation); read-out: ability to inhibit JAK3 activity, IC50 range (Table V)
How it was run: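 Peripheral-blood human T-cells pre-activated via TCR/CD28, IL-2-starved overnight, then cultured 72 h at 37 °C with compound in Yssel's medium containing IL-2 (80 U/mL in cell suspension). Proliferation read as viable-cell ATP by CellTiter-Glo luminescence; reduction versus control taken as JAK pathway inhibition.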

SMILES	IC50
CCc1ccc(Nc2ncc(C)c(Nc3ccc4oc(=O)[nH]c4c3)n2)cc1 [Compound I-504, 5-(2-(4-ethylphenylamino)-5-methylpyrimidin-4-ylamino)benzo[d]oxazol-2(3H)-one]	< 500 nM
Cc1cnc(Nc2ccc(-c3cccnc3)c(F)c2)nc1Nc1ccc2oc(=O)[nH]c2c1 [Compound I-505, 5-(2-(3-fluoro-4-(pyridin-3-yl)phenylamino)-5-methylpyrimidin-4-ylamino)benzo[d]oxazol-2(3H)-one trifluoroacetic acid salt]	> 10000 nM
COc1cc(Nc2ncc(C)c(Nc3ccc4oc(=O)[nH]c4c3)n2)ccc1-c1cccnc1 [Compound I-506, 5-(2-(3-methoxy-4-(pyridin-3-yl)phenylamino)-5-methylpyrimidin-4-ylamino)benzo[d]oxazol-2(3H)-one formate salt]	< 500 nM
COc1c(F)ccc(Nc2ncc(C)c(Nc3cc(C)c4oc(=O)[nH]c4c3)n2)c1F [Compound I-507, 5-(2-(2,4-difluoro-3-methoxyphenylamino)-5-methylpyrimidin-4-ylamino)-7-methylbenzo[d]oxazol-2(3H)-one]	< 500 nM
COc1c(F)ccc(Nc2ncc(C)c(Nc3cc(F)c4oc(=O)[nH]c4c3)n2)c1F [Compound I-508, 5-(2-(2,4-difluoro-3-methoxyphenylamino)-5-methylpyrimidin-4-ylamino)-7-fluorobenzo[d]oxazol-2(3H)-one]	< 500 nM
Cc1cnc(Nc2ccc(-c3ccc(Cl)nc3)cc2)nc1Nc1ccc2oc(=O)[nH]c2c1 [Compound I-509, 5-(2-(4-(6-chloropyridin-3-yl)phenylamino)-5-methylpyrimidin-4-ylamino)benzo[d]oxazol-2(3H)-one trifluoroacetate salt]	> 10000 nM
Cc1cnc(Nc2ccc(-c3ccc(OCCCN(C)C)nc3)cc2)nc1Nc1ccc2oc(=O)[nH]c2c1 [Compound I-511, 5-(2-(4-(6-(3-(dimethylamino)propoxy)pyridin-3-yl)phenylamino)-5-methylpyrimidin-4-ylamino)benzo[d]oxazol-2(3H)-one trifluoroacetate salt]	< 500 nM
Cc1cnc(Nc2ccc(-c3ccc(N4CCOCC4)nc3)cc2)nc1Nc1ccc2oc(=O)[nH]c2c1 [Compound I-512, 5-(5-methyl-2-(4-(6-morpholinopyridin-3-yl)phenylamino)pyrimidin-4-ylamino)benzo[d]oxazol-2(3H)-one trifluoroacetate salt]	< 500 nM
Cc1cnc(Nc2cccc(C)c2F)nc1Nc1ccc2oc(=O)[nH]c2c1 [Compound I-513, 5-(2-(2-fluoro-3-methylphenylamino)-5-methylpyrimidin-4-ylamino)benzo[d]oxazol-2(3H)-one]	< 500 nM
Cc1ccc(Nc2ncc(C)c(Nc3ccc4oc(=O)[nH]c4c3)n2)c(F)c1 [Compound I-514, 5-(2-(2-fluoro-4-methylphenylamino)-5-methylpyrimidin-4-ylamino)benzo[d]oxazol-2(3H)-one]	< 500 nM
Cc1ccc(F)c(Nc2ncc(C)c(Nc3ccc4oc(=O)[nH]c4c3)n2)c1 [Compound I-515, 5-(2-(2-fluoro-5-methylphenylamino)-5-methylpyrimidin-4-ylamino)benzo[d]oxazol-2(3H)-one]	< 500 nM
Cc1cnc(Nc2cccc(C(F)(F)F)c2C)nc1Nc1ccc2oc(=O)[nH]c2c1 [Compound I-518, 5-[5-Methyl-2-(2-methyl-3-trifluoromethyl-phenylamino)-pyrimidin-4-ylamino]-3H-benzooxazol-2-one]	< 500 nM
CC(=O)c1ccc(F)c(Nc2ncc(C)c(Nc3ccc4oc(=O)[nH]c4c3)n2)c1 [Compound I-519, 5-(2-(5-acetyl-2-fluorophenylamino)-5-methylpyrimidin-4-ylamino)benzo[d]oxazol-2(3H)-one]	< 500 nM
Cc1cnc(Nc2ccccc2Cl)nc1Nc1ccc2oc(=O)[nH]c2c1 [Compound I-520, 5-(2-(2-chlorophenylamino)-5-methylpyrimidin-4-ylamino)benzo[d]oxazol-2(3H)-one]	500 to 5000 nM
Cc1ccc(Cl)c(Nc2ncc(C)c(Nc3ccc4oc(=O)[nH]c4c3)n2)c1 [Compound I-521, 5-(2-(2-chloro-5-methylphenylamino)-5-methylpyrimidin-4-ylamino)benzo[d]oxazol-2(3H)-one]	< 500 nM
Cc1cnc(Nc2cc(C(C)O)ccc2F)nc1Nc1ccc2oc(=O)[nH]c2c1 (stereo not drawn) [Compound I-523, 5-(2-(2-fluoro-5-(1-hydroxyethyl)phenylamino)-5-methylpyrimidin-4-ylamino)benzo[d]oxazol-2(3H)-one]	< 500 nM
Cc1cnc(Nc2cc(C)c(I)c(C)c2)nc1Nc1ccc2oc(=O)[nH]c2c1 [Compound I-527, 5-[2-(4-Iodo-3,5-dimethyl-phenylamino)-5-methyl-pyrimidin-4-ylamino]-3H-benzooxazol-2-one]	< 500 nM
COc1cc(Nc2ncc(C)c(Nc3ccc4oc(=O)[nH]c4c3)n2)cc(OC)c1C [Compound I-529, 5-(2-(3,5-dimethoxy-4-methylphenylamino)-5-methylpyrimidin-4-ylamino)benzo[d]oxazol-2(3H)-one]	< 500 nM
Cc1cc(F)c(Nc2ncc(C)c(Nc3ccc4oc(=O)[nH]c4c3)n2)cc1C [Compound I-530, 5-(2-(2-fluoro-4,5-dimethylphenylamino)-5-methylpyrimidin-4-ylamino)benzo[d]oxazol-2(3H)-one]	< 500 nM
Cc1cnc(Nc2ccc(C)c(C(F)(F)F)c2F)nc1Nc1ccc2oc(=O)[nH]c2c1 [Compound I-532, 5-(2-(2-fluoro-4-methyl-3-(trifluoromethyl)phenylamino)-5-methylpyrimidin-4-ylamino)benzo[d]oxazol-2(3H)-one]	< 500 nM
COc1ccc(F)c(Nc2ncc(C)c(Nc3ccc4oc(=O)[nH]c4c3)n2)c1 [Compound I-533, 5-(2-(2-fluoro-5-methoxyphenylamino)-5-methylpyrimidin-4-ylamino)benzo[d]oxazol-2(3H)-one]	< 500 nM
COc1cc(Nc2ncc(C)c(Nc3ccc4oc(=O)[nH]c4c3)n2)cc(C)c1C [Compound I-535, 5-(2-(3-methoxy-4,5-dimethylphenylamino)-5-methylpyrimidin-4-ylamino)benzo[d]oxazol-2(3H)-one]	< 500 nM
COc1cc(C)cc(Nc2ncc(C)c(Nc3cc(C)c4oc(=O)n(COP(=O)(O)O)c4c3)n2)c1 [Compound I-536, Sodium (5-(2-(3-methoxy-5-methylphenylamino)-5-methylpyrimidin-4-ylamino)-7-methyl-2-oxobenzo[d]oxazol-3 (2H)-yl)methyl phosphate]	5000 to 10000 nM
Cc1cnc(Nc2ccc(N(C)C)nc2)nc1Nc1ccc2oc(=O)[nH]c2c1 [II-1, N4-(benzo[d]oxazol-2(3H)-on-5-yl)-N2-(6-dimethylaminopyridin-3-yl)-5-methylpyrimidine-2,4-diamine]	< 500 nM
Cc1cnc(Nc2ccc(N3C[C@H]4C[C@@H]3CN4C)nc2)nc1Nc1ccc2oc(=O)[nH]c2c1 [II-2, N4-(benzo[d]oxazol-2(3H)-on-5-yl)-N2-(6-((1R,4R)-5-methyl-2,5-diazabicyclo[2.2.1]heptan-2-yl)-pyridin-3-yl)-5-methylpyrimidine-2,4-diamine]	< 500 nM
Cc1cnc(Nc2ccc(N3CCCN(C)CC3)nc2)nc1Nc1ccc2oc(=O)[nH]c2c1 [II-3, N4-(benzo[d]oxazol-2(3H)-on-5-yl)-N2-(6-(4-methyl-1,4-diazepan-1-yl)pyridin-3-yl)-5-methylpyrimidine-2,4-diamine]	< 500 nM
CCCn1c(=O)oc2ccc(Nc3nc(Nc4ccc(N5CCN(C)CC5)nc4)ncc3C)cc21 [II-4, N4-(3-n-propylbenzo[d]oxazol-2(3H)-on-5-yl)-N2-(6-(4-methylpiperazin-1-yl)pyridin-3-yl)-5-methylpyrimidine-2,4-diamine]	< 500 nM

Same assay, conditions: tested under conditions described in Example 3 (IL-2 stimulated human primary T-cell proliferation); read-out: ability to inhibit JAK3 activity, IC50 range (Table V)

SMILES	IC50
Cc1cc(Nc2ncc(C)c(Nc3ccc4oc(=O)[nH]c4c3)n2)cc(OC(F)F)c1 [Compound I-516, N2-(3-difluoromethoxy-5-methyl)phenyl-5-methyl-N4-(2-oxo-2,3-dihydro-1,3-benzoxazol-5-yl)-2,4-pyrimidinediamine]	< 500 nM
Cc1cnc(Nc2cc(C)c(C)c(C)c2)nc1Nc1cc(Cl)c2oc(=O)[nH]c2c1 [Compound I-522, N4-(7-chloro-2-oxo-2,3-dihydro-1,3-benzoxazol-5-yl)-5-methyl-N2-(3,4,5-trimethyl)phenyl-2,4-pyrimidinediamine]	< 500 nM
Cc1cnc(Nc2cc(C)c(C)c(C)c2)nc1Nc1cc(Cl)c2oc(=O)n(COP(=O)(OC(C)(C)C)OC(C)(C)C)c2c1 [Compound I-524, N4-{3-[bis(1,1-dimethylethoxy)]phosphinyloxymethyl-7-chloro-2-oxo-2,3-dihydro-1,3-benzoxazol-5-yl}-N2-(3,4,5-trimethyl)phenyl-5-methyl-2,4-pyrimidinediamine]	> 10000 nM
Cc1cnc(Nc2cc(C)c(C)c(C)c2)nc1Nc1cc(Cl)c2oc(=O)n(COP(=O)(O)O)c2c1 [Compound I-525, N4-[7-chloro-3-(phosphonooxy)methyl-2-oxo-2,3-dihydro-1,3-benzoxazol-5-yl]-5-methyl-N2-(3,4,5-trimethyl)phenyl-2,4-pyrimidinediamine]	500 to 5000 nM
Cc1cnc(Nc2cc(C)c(C)c(F)c2)nc1Nc1ccc2oc(=O)[nH]c2c1 [Compound I-537, N2-(3,4-dimethyl-5-fluoro)phenyl-5-methyl-N4-(2-oxo-2,3-dihydro-1,3-benzoxazol-5-yl)-2,4-pyrimidinediamine]	< 500 nM
COc1cc(Nc2ncc(C)c(Nc3ccc4oc(=O)n(COP(=O)(O)O)c4c3)n2)cc(C)c1F [Compound I-538, Sodium (5-(2-(4-fluoro-3-methoxy-5-methylphenylamino)-5-methylpyrimidin-4-ylamino)-2-oxobenzo[d]oxazol-3(2H)-yl)methyl phosphate]	500 to 5000 nM
